Data published in ChEMBL document CHEMBL4270495, “Oleanane-, ursane-, and quinone methide friedelane-type triterpenoid derivatives: Recent advances in cancer treatment” (Eur J Med Chem, 2017).
pIC50: −log10 of the molar value.

How the values were obtained:
[1] = test system: SGC-7901; experiment: Cytotoxicity in human SGC7901 cells assessed as reduction in cell viability incubated for 48 hrs by MTT assay; assay type: functional, cell-based; settings: SGC-7901, 48 h
[2] = test system: HepG2; experiment: Cytotoxicity in human HepG2 cells assessed as reduction in cell viability incubated for 48 hrs by MTT assay; assay type: functional, cell-based; settings: HepG2, 48 h
[3] = test system: HeLa; experiment: Cytotoxicity in human HeLa cells assessed as reduction in cell viability incubated for 48 hrs by MTT assay; assay type: functional, cell-based
[4] = test system: MCF7; experiment: Cytotoxicity in human MCF7 cells assessed as reduction in cell viability incubated for 24 hrs by MTT assay; assay type: functional, cell-based; settings: MCF7, 24 h
[5] = test system: A549; experiment: Cytotoxicity in human A549 cells assessed as reduction in cell viability incubated for 24 hrs by MTT assay; assay type: functional, cell-based; settings: A549, 24 h
[6] = test system: HeLa; experiment: Cytotoxicity in human HeLa cells assessed as reduction in cell viability incubated for 72 hrs by CCK8 assay; assay type: functional, cell-based
[7] = test system: HepG2; experiment: Cytotoxicity in human HepG2 cells assessed as reduction in cell viability incubated for 24 hrs by MTT assay; assay type: functional, cell-based; settings: HepG2, 24 h
[8] = test system: A-375; experiment: Cytotoxicity in human A375 cells assessed as reduction in cell viability incubated for 24 hrs by MTT assay; assay type: functional, cell-based; settings: A-375, 24 h
[9] = test system: NCI-H446; experiment: Cytotoxicity in human NCI-H446 cells assessed as reduction in cell viability incubated for 24 hrs by MTT assay; assay type: functional, cell-based; settings: NCI-H446, 24 h
[10] = test system: MCF7; experiment: Cytotoxicity in human MCF7 cells assessed as reduction in cell viability; assay type: functional, cell-based
[11] = test system: RAW264.7; experiment: Anti-inflammatory activity in mouse RAW264.7 cells assessed as inhibition of nitric oxide production; assay type: functional, cell-based
[12] = test system: A549; experiment: Cytotoxicity in human A549 cells assessed as reduction in cell viability incubated for 48 hrs by MTT assay; assay type: functional, cell-based; settings: A549, 48 h
[13] = test system: T-24; experiment: Cytotoxicity in human T24 cells assessed as reduction in cell viability incubated for 48 hrs by MTT assay; assay type: functional, cell-based; settings: T-24, 48 h
[14] = Cytotoxicity in human SPCA2 cells assessed as reduction in cell viability incubated for 48 hrs by MTT assay; assay type: functional, cell-based; settings: SPCA2, 48 h
[15] = test system: HUVEC; experiment: Cytotoxicity in HUVEC cells assessed as reduction in cell viability incubated for 48 hrs by MTT assay; assay type: cell-based; settings: Homo sapiens
[16] = test system: AGS; experiment: Cytotoxicity in human AGS cells assessed as reduction in cell viability incubated for 24 hrs by MTT assay; assay type: functional, cell-based
[17] = test system: HeLa; experiment: Cytotoxicity in human HeLa cells assessed as reduction in cell viability incubated for 24 hrs by MTT assay; assay type: functional, cell-based
[18] = Cytotoxicity in human HELF cells assessed as reduction in cell viability incubated for 24 hrs by MTT assay; assay type: cell-based
[19] = test system: Bel-7402; experiment: Cytotoxicity in human Bel7402 cells assessed as reduction in cell viability incubated for 72 hrs by MTT assay; assay type: functional, cell-based; settings: Bel-7402, 72 h
[20] = test system: H4; experiment: Cytotoxicity in human H4 cells assessed as reduction in cell viability incubated for 72 hrs by MTT assay; assay type: functional, cell-based; settings: H4, 72 h

C[C@@H]1CC[C@]2(C(=O)OCC(=O)N/N=C/c3ccc([N+](=O)[O-])cc3)CC[C@]3(C)C(=CC(=O)[C@@H]4[C@@]5(C)CC[C@H](O)[C@](C)(CO)[C@@H]5CC[C@]43C)[C@@H]2[C@]1(C)O
pIC50 [1]: 4.81
pIC50 [2]: 5.06
pIC50 [3]: 4.73

C[C@@H]1O[C@@H](O[C@H]2CC[C@@]3(C)[C@@H](CC[C@]4(C)[C@@H]3CC=C3[C@H]5CC(C)(C)CC[C@]5(C(=O)O)CC[C@]34C)[C@]2(C)CO)[C@H](O)[C@H](O)[C@H]1O[C@@H]1OC[C@H](O)[C@H](O)[C@H]1O
pIC50 [4]: 4.38
pIC50 [5]: 4.76

COC(=O)C1CCCN1C(=O)[C@]12CC[C@@H](C)[C@H](C)[C@H]1C1=CC[C@@H]3[C@@]4(C)C[C@@H](O)[C@H](O)[C@@](C)(CO)[C@@H]4CC[C@@]3(C)[C@]1(C)CC2 (stereo not given in full)
pIC50 [6]: 4.67

C[C@@H]1CC[C@]2(C(=O)NC(Cc3c[nH]c4ccccc34)C(=O)O)CC[C@]3(C)C(=CC(=O)[C@@H]4[C@@]5(C)CC[C@H](O)[C@](C)(CO)[C@@H]5CC[C@]43C)[C@@H]2[C@]1(C)O (stereo not given in full)
pIC50 [7]: 5.21
pIC50 [8]: 5.10
pIC50 [9]: 4.95

CC(=O)O[C@H]1CC[C@]2(C)[C@H]3CC=C4[C@@H]5[C@@H](C)[C@H](C)CC[C@]5(C(=O)NCCCCC(C)N)CC[C@@]4(C)[C@]3(C)CC[C@H]2C1(C)C (stereo not given in full)
pIC50 [7]: 5.30
pIC50 [10]: 5.32

C[C@@H]1O[C@@H](O[C@@H]2[C@@H](O)[C@H](O[C@H]3CC[C@@]4(C)[C@@H](CC[C@]5(C)[C@@H]4CC=C4[C@H]6CC(C)(C)CC[C@]6(C(=O)O)CC[C@]45C)[C@]3(C)CO)OC[C@@H]2O[C@H]2O[C@H](CO)[C@@H](O)[C@H](O)[C@@H]2O)[C@H](O)[C@@H](O)[C@H]1O
pIC50 [4]: < 4.30
pIC50 [5]: 4.71

C[C@H]1[C@H](C)CC[C@@]23CC[C@@]4(C)[C@]5(C)CC[C@H]6C(C)(C)C(=O)C(C#N)=C[C@]6(C)C5=CC(=O)[C@]4(OC2=O)[C@H]13
pIC50 [11]: 5.10

C[C@@H]1O[C@@H](O[C@H]2CC[C@@]3(C)[C@@H](CC[C@]4(C)[C@@H]3CC=C3[C@H]5CC(C)(C)CC[C@]5(C(=O)O)CC[C@]34C)[C@]2(C)CO)[C@H](O)[C@H](O)[C@H]1O[C@@H]1O[C@H](CO)[C@@H](O)[C@H](O)[C@H]1O
pIC50 [4]: 4.38
pIC50 [5]: 4.75

CCOP(=O)(OCC)C(NC(=O)[C@]12CC[C@@H](C)[C@H](C)[C@H]1C1=CC[C@@H]3[C@@]4(C)C[C@@H](OC(C)=O)[C@H](OC(C)=O)[C@@](C)(COC(C)=O)[C@@H]4CC[C@@]3(C)[C@]1(C)CC2)c1cccc2ccccc12 (stereo not given in full)
pIC50 [12]: 4.26
pIC50 [13]: 4.36
pIC50 [14]: 4.34
pIC50 [15]: < 4.00

C[C@H]1[C@H](C)CC[C@]2(C(=O)n3ccnc3)CC[C@]3(C)C(=CC[C@@H]4[C@@]5(C)C=C(C#N)C(=O)C(C)(C)[C@@H]5CC[C@]43C)[C@H]12
pIC50 [11]: 5.30

COc1ccc(/C=N/NC(=O)COC(=O)[C@]23CC[C@@H](C)[C@@](C)(O)[C@H]2C2=CC(=O)[C@@H]4[C@@]5(C)CC[C@H](O)[C@](C)(CO)[C@@H]5CC[C@@]4(C)[C@]2(C)CC3)cc1
pIC50 [1]: 4.95
pIC50 [2]: 5.38
pIC50 [3]: 5.07

C[C@H]1[C@H](C)CC[C@]2(C(=O)NCCCCN)CC[C@]3(C)C(=CC[C@@H]4[C@@]5(C)CC[C@H](O)C(C)(C)[C@@H]5CC[C@]43C)[C@H]12
pIC50 [16]: 4.76
pIC50 [7]: 4.84
pIC50 [17]: 4.84
pIC50 [18]: 4.82

CC(=O)CC1C=C2C(C)(CC[C@@]3(C)[C@@H]4C[C@](C)(C(=O)O)CC[C@]4(C)CC[C@]23C)c2cc(OC(C)=O)c(OC(C)=O)c(C)c21 (single isomer, unassigned)
pIC50 [19]: < 3.82
pIC50 [20]: < 3.82

COC(=O)[C@]12CCC(C)(C)C[C@H]1[C@H]1C(=O)C=C3[C@@]4(C)C=C(C#N)C(=O)C(C)(C)[C@@H]4CC[C@@]3(C)[C@]1(C)CC2 [BARDOXOLONE METHYL]
pIC50 [11]: 5.40

O=c1[nH]cc(F)c(=O)[nH]1 [FLUOROURACIL]
pIC50 [12]: 4.46
pIC50 [13]: 4.40
pIC50 [14]: 4.35
pIC50 [15]: 4.25
